Measured values reported in US6689817B1, “Process for preparing guaifenesin tannate” (Jame Fine Chemicals, Inc., priority 2001, dated 2004).
Where two headings read alike, the source gives them in different places.

Experiments:
[1] = background statement, cited from earlier work; for solubility in alcohols: alcohols such as methanol, ethanol, isopropanol
[2] = Solubility in water and organic solvents (descriptive)
[3] = Methylene chloride solubility test of milled guaifenesin tannate powders (Example 4); type: physicochemical
Protocol: Two gram samples of finely milled guaifenesin tannate powders were taken from each of the products prepared in Examples 1-3. Each sample was mixed with 110 g of methylene chloride and was stirred for 10 minutes at ambient temperature. Each mixture was then filtered. The insoluble material was dried and weighed and the filtrate was evaporated to dryness and the residue was weighed The results were as follows: […]

Row | Molecule | solubility in alcohols [2] | solubility in methylene chloride [2] | solubility in toluene [2] | solubility in water [2] | Insoluble Ppt. [3] [g] | Soluble Ppt. [3] [mg] | solubility in alcohols [1] | solubility in water [1] | further results
1 | guaifenesin tannate |  |  |  |  |  |  |  |  | solubility in methylene chloride (conclusion from Example 4) [3]: insoluble
2 | guaifenesin tannate [Example 1] |  |  |  |  |  |  |  |  | Insoluble Ppt. ([3]; 2 g sample mixed with 110 g methylene chloride, stirred 10 minutes at ambient temperature, filtered, insoluble material dried and weighed): 1.94 g; Soluble Ppt. ([3]; 2 g sample mixed with 110 g methylene chloride, stirred 10 minutes at ambient temperature, filtrate evaporated to dryness, residue weighed): <8 mg
3 | guaifenesin tannate [Example 2] |  |  |  |  | 1.95 | <10 |  |  | 
4 | guaifenesin tannate [Example 3] |  |  |  |  | 1.945 | <7 |  |  | 

The next lines start with results.

Row | solubility in alcohols [2] | solubility in methylene chloride [2] | solubility in toluene [2] | solubility in water [2] | Insoluble Ppt. [3] [g] | Soluble Ppt. [3] [mg] | Molecule | solubility in alcohols [1] | solubility in water [1] | further results
5 | soluble | soluble | sparingly soluble | soluble |  |  | COc1ccccc1OCC(O)CO (centres unmarked) [guaifenesin, 3-(2-methoxyphenoxy)-1,2-propanediol] | readily soluble | about 5 wt. % | 
6 | soluble | insoluble | insoluble | soluble |  |  | O=C(OC[C@H]1O[C@@H](OC(=O)c2cc(O)c(O)c(OC(=O)c3cc(O)c(O)c(O)c3)c2)[C@H](OC(=O)c2cc(O)c(O)c(OC(=O)c3cc(O)c(O)c(O)c3)c2)[C@@H](OC(=O)c2cc(O)c(O)c(OC(=O)c3cc(O)c(O)c(O)c3)c2)[C@@H]1OC(=O)c1cc(O)c(O)c(OC(=O)c2cc(O)c(O)c(O)c2)c1)c1cc(O)c(O)c(OC(=O)c2cc(O)c(O)c(O)c2)c1 [tannic acid] | highly soluble | highly soluble | solubility in chloroform ([2]; chloroform): insoluble
